Data on six molecules can be found in patent US4339378A, “N-Acylcarnosine aluminum salts” (Nippon Chemiphar Co., Ltd., priority 1979, dated 1982).

Common to all, as to format: in vivo, male Donryu strain rats
One experiment concerns Shay's ulcer in rats. The experiment can be described thus: Shay's ulcer (pylorus ligation) in rats. Conditions: for Ulcer index: total ulcerated area in forestomach. Here is the method:
Shay's ulcer: Groups of ten male Donryu strain rats each weighing 210 to 230 g were deprived of food for 48 hours. The pylorus of each rat was ligated according to the method of Shay et al [Gastroenterology, 5, 43-61 (1945)]. Each of the animals was allowed to stand abstained from food and water for further 14 hours and then sacrificed to remove its stomach. After collection of the gastric juice, the ulcerated area (mm^2) in the forestomach of each rat was measured under a dissecting microscope (10×). The total area (mm^2) of all the lesions of each rat was indicated as an ulcer index. Test medicine samples were given orally immediately after the pylorus ligation.

In experiment [1] the test system is Indomethacin-induced ulcer in rats. The experiment can be described thus: Indomethacin-induced ulcer in rats. Conditions: 300 mg/kg P.O., indomethacin 25 mg/kg s.c.; for Ulcer index: total lesion length, control 16.3 ± 2.4. Here is the method: Indomethacin-induced ulcer: Groups of ten male Donryu strain rats each weighing 200 to 215 g were deprived of food for 24 hours. Then, the pylorus was ligated under ether anethesia, after which indomethacin was administered subcutaneously in an amount of 25 mg/kg to each rat. Seven hours after the administration, each of the animals was sacrificed under ether anethesia to remove its stomach, followed by immersion in a 1% formalin solution for ten minutes. The stomach which had been semi-fixed was incised along its greater curvature, and the length (mm) of each lesion formed in the mucous membrane was measured under a dissecting microscope (10×). The total length (mm) of all the lesions of each rat was indicated as an ulcer index. Test medicine samples were given orally ten minutes before the pylorus logation.

For another experiment, the system named is Stress ulcer in rats. Put plainly: Stress ulcer (restraint and water immersion) in rats. Conditions: for Ulcer index: total lesion length in glandular portion, control 15.2 ± 3.2. Here is the method:
Stress ulcer: Groups of ten male Donryu strain rats each weighing 240 to 260 g were placed in a stress cage which served to immobilize the animals therein and then immersed in a water bath of 23° C. on a level with the xiphoid process according to the method of K. Takagi et al [Jap. J. Pharmac., 18 (9), 9-19 (1968)], thereby imposing stress on each rat. Seven hours after the immersion, each of the animals was withdrawn from the water bath and immediately sacrificed by a blow on the head, followed by removal of the stomach of each rat. The stomach was slightly inflated by injecting a 1% formalin solution and then immediately immersed in a 1% formalin solution, followed by incising the stomach along its greater curvature to measure the length (mm) of each lesion in the glandular portion under a dissecting microscope (10×). The total length (mm) of all the lesions of each rat was indicated as an ulcer index. Test medicine samples were given orally ten minutes before the immersion in water.

Experiment [2] relates to Histamine-induced ulcer in rats. The experiment can be described thus: Histamine-induced ulcer in rats. The note with it: 300 mg/kg P.O., histamine phosphate 300 mg/kg i.p.; for Ulcer index: total lesion length, control 24.1 ± 4.7. Here is the method: Histamine-induced ulcer: Groups of ten male Donryu strain rats each weighing 210 to 230 g were deprived of food for 48 hours and then administered intraperitoneally with histamine phosphate (300 mg/kg). Four hours after the administration, each of the animals was sacrificed under ether anesthesia, followed by removal of its stomach and immersion in a 1% formalin solution for ten minutes. The stomach which had been semi-fixed was incised along the greater curvature, and the length (mm) of each lesion was measured under a dissecting microscope (10×). The total length (mm) of all the lesions of each rat was indicated as an ulcer index. Test medicine samples were given orally before the histamine administration.

Experiment [3] relates to Aspirin-induced ulcer in rats. Put plainly: Aspirin-induced ulcer in rats. Conditions: 1,000 mg/kg P.O., aspirin 100 mg/kg; for Ulcer index: total lesion length, control 17.7 ± 2.3. The method, then:
Aspirin-induced ulcer: Groups of ten male Donryu strain rats each weighing 220 to 230 g were deprived of food for 24 hours. The pylorus of each rat was ligated under ether anethesia according to the method of S. Okabe et al [Jap. J. Pharmac. 24, 357-361 (1974)]. After the pylorus ligation, aspirin (100 mg/kg) was administered orally to each rat. Seven hours after the administration, each of the animals was sacrificed under ether anesthesia to remove its stomach. After collection of the gastric juice and treatment with a 1% formalin solution, the length (mm) of each lesion formed in the glandular portion was measured. The total length (mm) of all the lesions of each rat was indicated as an ulcer index. Test medicine samples were given orally immediately after the pylorus ligation.

Where [4] appears, read: 1,000 mg/kg P.O., first series (control 2.4 ± 0.7).
Where [5] appears, read: 2,000 mg/kg P.O., second series (control 2.9 ± 0.4).
Setting [6] is: 1,000 mg/kg P.O., second series (control 2.9 ± 0.4).

Usually % Inhibition stands for the drop in the measured response relative to a control, in per cent.

For the molecule `NCCC(=O)N[C@@H](Cc1cnc[nH]1)C(=O)O` [L-Carnosine, L-carnosine], the “% Inhibition” value is reported as 12.5% with Shay's ulcer in rats (setting [4]); ~ 0% in experiment [1]; 6.6% with Stress ulcer in rats (300 mg/kg P.O.); 29.6% in the experiment on Stress ulcer in rats (1,000 mg/kg P.O.); 28.2% in experiment [2]. In addition, the Ulcer index with Shay's ulcer in rats (setting [4]) was found to be 2.1 ± 0.7 mm^2; in experiment [1], 17.3 ± 3.0 mm; with Stress ulcer in rats (300 mg/kg P.O.), 14.2 ± 3.7 mm; with Stress ulcer in rats (1,000 mg/kg P.O.), 10.7 ± 2.2 mm; in experiment [2] it was 17.3 ± 3.2 mm.

As for `NC(=O)CC[C@H](N)C(=O)O` [L-Glutamine, L-glutamine], the “% Inhibition” value with Shay's ulcer in rats (setting [4]) amounted to 8.3%; in experiment [1], 41.8%; in experiment [3], 66.1%. The Ulcer index in the experiment with Shay's ulcer in rats (setting [4]) worked out at 2.2 ± 0.8 mm^2; in experiment [1], 9.5 ± 4.1 mm; in experiment [3], 6.0 ± 2.2 mm.

As for `CC(=O)N[C@@H](CCC(N)=O)C(=O)O.[Al]` [N-Acetyl-L-glutamine aluminum, N-acetyl-L-glutamine aluminum], in the experiment on Shay's ulcer in rats (setting [5]), the “% Inhibition” value stood at 69.0% and the Ulcer index is on record as 0.9 ± 0.7 mm^2.

Consider N-acetyl-L-carnosine aluminum salt [B], for which, in the experiment with Shay's ulcer in rats (setting [6]), the “% Inhibition” value was found to be 79.3% and the Ulcer index stood at 0.6 ± 0.8 mm^2.

On to N-acetylcarnosine aluminum salt, for which the “% Inhibition” value with Shay's ulcer in rats (setting [4]) turned out to be 80.4%; in experiment [1] it was 63.2%; in the experiment with Stress ulcer in rats (300 mg/kg P.O.), 46.7%; in the experiment on Stress ulcer in rats (1,000 mg/kg P.O.) it was 70.4%; in experiment [3], 96.0%; in experiment [2], 61.0%. Besides, the Ulcer index in the experiment with Shay's ulcer in rats (setting [4]) is 0.47 ± 0.4 mm^2; in experiment [1] it was 6.0 ± 2.4 mm; in the experiment on Stress ulcer in rats (300 mg/kg P.O.) it was 8.1 ± 2.9 mm; in the experiment on Stress ulcer in rats (1,000 mg/kg P.O.) it was 4.5 ± 2.4 mm; in experiment [3], 0.7 ± 0.6 mm; in experiment [2], 9.4 ± 2.0 mm.

Regarding aluminum sucrose sulfate, the “% Inhibition” value in the experiment with Shay's ulcer in rats (setting [4]) is given as 71.0%; in the experiment with Shay's ulcer in rats (setting [6]) it was 72.4%; in experiment [1] it was 52.1%; with Stress ulcer in rats (1,000 mg/kg P.O.), 56.7%; in experiment [3], 79.1%; in experiment [2], 40.2%. Moreover, the Ulcer index with Shay's ulcer in rats (setting [4]) is reported as 0.7 ± 0.8 mm^2; in the experiment on Shay's ulcer in rats (setting [6]), 0.8 ± 0.6 mm^2; in experiment [1], 7.8 ± 3.0 mm; in the experiment on Stress ulcer in rats (1,000 mg/kg P.O.), 6.5 ± 6.0 mm; in experiment [3] it was 3.7 ± 2.1 mm; in experiment [2] it was 14.4 ± 1.5 mm.
